system: HBV; experiment: HBV screening assay (viral DNA in baculovirus-HBV transduced HepG2 cells); type: cell-based; details: Hepatitis B virus, HepG2, 72 h, read-out: EC50 (antiviral activity), HBV-transduced HepG2 cells, three days with compound, viral DNA by ELISA
Procedure, shortened: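 HepG2 cells transduced with baculovirus carrying the HBV genome were grown 3 days at 37 °C with compound in EMEM/10% FBS; viral DNA from lysates captured by solid-phase hybridisation with digoxigenin probes and read by anti-digoxigenin HRP ELISA. EC50 from titration curves; CC50 from non-transduced HepG2 after 3 days by MTS viability.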

Structure (SMILES)	EC50 [µM]
CCNC(=O)N1Cc2nc3sc(C(N)=O)c(N)c3c(-c3cccs3)c2C1 [Compound 98, 3-Amino-4-thiophen-2-yl-5,7-dihydro-1-thia-6,8-diaza-s-indacene-2,6-dicarboxylicacid 2-amide 6-ethylamide]	< 1
NC(=O)c1sc2nc3c(c(-c4cccs4)c2c1N)CN(C(=S)Nc1ccsc1)C3 [Compound 100, 3-Amino-4-thiophen-2-yl-5,7-dihydro-1-thia-6,8-diaza-s-indacene-2,6-dicarboxylicacid 2-amide 5-thiophen-3-ylamide]	< 1
NC(=O)c1sc2nc3c(c(-c4cccs4)c2c1N)CN(C(=O)Nc1ccc(N2CCOCC2)nc1)C3 [Compound 102, 3-Amino-4-thiophen-2-yl-5,7-dihydro-1-thia-6,8-diaza-s-indacene-2,6-dicarboxylicacid 2-amide 6-[(6-morpholin-4-yl-pyridin-3-yl)-amide]]	> 10
NC(=O)c1sc2nc3c(c(-c4cccs4)c2c1N)CN(C(=O)CCl)C3 [Compound 104, 3-Amino-6-(2-chloro-acetyl)-4-thiophen-2-yl-6,7-dihydro-5H-1-thia-6,8-diaza-s-indacene-2-carboxylic acid amide]	1 to 10
NC(=O)c1sc2nc3c(c(-c4cccs4)c2c1N)CN(C(=O)c1ccc(N2CCOCC2)nc1)C3 [Compound 105, 3-Amino-6-(6-morpholin-4-yl-pyridine-3-carbonyl)-4-thiophen-2-yl-6,7-dihydro-5H-1-thia-6,8-diaza-s-indacene-2-carboxylicacid amide]	> 10
NC(=O)c1sc2nc3c(c(-c4cccs4)c2c1N)CCC1CCCCC31 (stereo not shown) [Compound 107, 8-Amino-7-thiophen-2-yl-1,2,3,4,4a,5,6,11b-octahydro-10-thia-11-aza-cyclopenta[b]phenanthrene-9-carboxylic acid amide]	> 10

system: HBV; experiment: not given; details: HBV treatment, background statement; cited from earlier work

Structure (SMILES)	sustained viral response rate
CC(C)(C)C(=O)OCOP(=O)(COCCn1cnc2c(N)ncnc21)OCOC(=O)C(C)(C)C [adefovir dipivoxil, 9-(2-((-bis((pivaloyloxy)methoxy)phosphinyl)methoxy)ethyl)adenine]	below 20%

— patent US20090029983A1, “NOVEL HETEROCYCLIC COMPOUNDS HAVING ANTI-HBV ACTIVITY” (priority 2005, published 2009)
